Experimental data as given in patent US7368437B1, “Bicyclic heterocycles, processes for their preparation and their use as herbicides and pharmaceutical agents” (Bayer CropScience AG, priority 1999, dated 2008).

Legend:
Xanthomonas oryzae = conditions: stated in the literature; cited from earlier work

SMILES | melting point [°C] | action against Xanthomonas oryzae (Xanthomonas oryzae)
CN(C)c1ncc2nnc([C@@H]3O[C@H](CO)[C@@H](O)[C@H]3O)n2n1 [Ig, 6-Dimethylamino-3-β-ribofuranosyl-1,2,4-triazolo[3,4-f]-1,2,4-triazine] | 171 to 173 | –
OC[C@H]1O[C@@H](c2n[nH]c3cncnc23)[C@H](O)[C@@H]1O [Ib, 3-β-D-Ribofuranosyl-1H-pyrazolo[4,3-d]pyrimidine] | 227 to 228 | fungicidal action
CN(C)c1ncc2nnc([C@@H]3O[C@H](COC(=O)c4ccccc4)[C@@H](OC(=O)c4ccccc4)[C@H]3OC(=O)c3ccccc3)n2n1 [If, 6-Dimethylamino-3-(2′,3′,5′-tri-O-benzoyl-β-ribofuranosyl)-1,2,4-triazolo-[3,4-f]-1,2,4-triazine] | 79 to 80 | –
